Source: patent US8168673B2, “Compounds having CRTH2 antagonist activity” (Oxagen Limited, priority 2008, dated 2012)

What was measured:
[1] = tested on: PGD2 induced eosinophil shape change; experiment: Human whole blood eosinophil shape change assay; assay type: cell-based; conditions: for IC50: Eosinophil, human whole blood, 10 nM PGD2, read-out: IC50 Values for the Effect of Test Compounds on 10 nM PGD2-induced Eosinophil Shape Change; for activity in whole blood, in words: summary statement on Table 2
Procedure: Compounds 1 to 9 were assayed for their effect on PGD2 induced eosinophil shape change.
Compounds (1 μl, 200× final concentration) were added directly to 200 μl whole blood, mixed well and incubated for 15 min, 37° C., 5% CO2. After this time, cell shape was fixed by addition of 300 μl Cytofix™ buffer (BD Biosciences), 15 min on ice. 10 ml RBC lysis buffer was added to the fixed cells, incubated 5 min, at room temperature and centrifuged, 300×g for 5 min. Supernatant (containing lysed red cells) was removed and the lysis step was repeated. Leukocytes were resuspended in 250 μl RPMI/10% FCS and shape change analysed by FACS. Eosinophils were gated out based on their autofluorescence and 2000 eosinophil events were counted per sample. Data were analysed in triplicate.

[2] = molecular target: T1, CRTH2 Receptor (Homo sapiens, UniProt Q9Y5Y4); experiment: Radioligand binding assay, [3H]PGD2 on CHO/CRTH2 cell membranes; conditions: [3H]PGD2 competition
T1 construct: expressed in transfected cells; membranes
T1 sequence (Q9Y5Y4 1-395): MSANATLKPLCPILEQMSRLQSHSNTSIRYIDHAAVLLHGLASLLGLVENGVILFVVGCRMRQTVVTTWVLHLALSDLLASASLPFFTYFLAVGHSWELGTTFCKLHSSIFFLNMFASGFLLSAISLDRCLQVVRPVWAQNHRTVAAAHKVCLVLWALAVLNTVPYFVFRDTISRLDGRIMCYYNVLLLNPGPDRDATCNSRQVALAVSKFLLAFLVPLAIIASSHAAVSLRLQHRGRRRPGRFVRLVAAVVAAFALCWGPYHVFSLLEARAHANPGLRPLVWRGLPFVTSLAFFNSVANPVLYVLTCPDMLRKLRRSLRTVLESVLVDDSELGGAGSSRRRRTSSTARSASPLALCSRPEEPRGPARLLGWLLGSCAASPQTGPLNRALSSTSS
Procedure: Chinese Hamster Ovary cells were transfected with CRTH2 or DP receptors (CHO/CRTH2 and CHO/DP) and were maintained in culture in a humidified atmosphere at 37° C. (5% CO2) in Minimum Essential Medium (MEM) supplemented with 10% foetal bovine serum, 2 mM glutamine, and 1 mg ml^−1 active G418. The cells were passaged every 2-3 days. For radioligand binding assay, cells were prepared in triple-layer flasks or in 175 cm^2 square flasks (for membrane preparation.
Membranes were prepared either from CHO/CRTH2 and CHO/DP cells, or from platelets (as a source of TP receptors). CHO cells grown to confluency were washed with PBS and detached using a Versene solution (15 ml per flask). When the cells were grown in 175 cm^2 square flask, they were collected by scrapping in PBS. The cell suspensions were centrifuged (1,700 rpm, 10 min, 4° C.) and resuspended in 15 ml of buffer (1×HBSS, supplemented with 10 mM HEPES, pH 7.3). Cell suspensions were then homogenised using an Ultra Turrax at setting 4-6 for 20 s. The homogenate was centrifuged at 1,700 rpm for 10 min and the supernatant was collected and centrifuged at 20,000 rpm for 1 h at 4° C. The resulting pellet was resuspended in buffer and stored at −80° C. in aliquots of 200-500 μl. The protein concentration was determined by the method of Bradford (1976), using bovine serum albumin as standard. The platelets were washed by centrifugation at 600×g for 10 min and resuspended in ice-cold assay buffer (10 mM Tris-HCl, pH 7.4, 5 mM Glucose, 120 mM NaCl, 10 μM indomethacin) and directly centrifuged at 20,000 rpm for 30 min at 4° C. The resulting pellet was treated as described above.
[^3H]PGD2 (160 Ci/mmol) binding experiments were performed on membranes prepared as described above. Assays were performed in a final volume of 100 μl of buffer (1×HBSS/HEPES 10 mM, pH 7.3). Cell membranes (15 μg) were preincubated at room temperature with varying concentration of competing ligand for 15 min. [^3H]PGD2 was then added and the incubation continued for a further one hour at room temperature. The reaction was terminated by the addition of 200 μl ice-cold assay buffer to each well, followed by rapid filtration through Whatman GF/B glass fibre filters using a Unifilter Cell harvester (PerkinElmer Life Sciences) and six washes of 300 μl of ice-cold buffer. The Unifilter plates were dried at room temperature for at least 1 h and the radioactivity retained on the filters was determined on a Beta Trilux counter (PerkinElmer Life Sciences), following addition of 40 μl of Optiphase Hi-Safe 3 (Wallac) liquid scintillation. Non specific binding was defined in the presence of 10 μM unlabelled PGD2. Assays were performed in duplicate.

[3] = molecular target: T1, CRTH2 Receptor; experiment: as above; conditions: summary statement on Table 1

| Compound | IC50 [1] [nM] | Ki [2] [nM] | intrinsic activity (CRTH2 antagonist), in words [3] | activity in whole blood, in words [1] |
| --- | --- | --- | --- | --- |
| Cc1c(Cc2ccccc2S(=O)(=O)C2CCCCC2)c2cc(F)ccc2n1CC(=O)O [Compound 1, 2-(3-(2-(Cyclohexylsulfonyl)benzyl)-5-fluoro-2-methyl-1H-indol-1-yl)acetic acid] | 6 | 0.02 | high intrinsic activity | activity is maintained in whole blood |
| Cc1c(Cc2ccccc2S(=O)(=O)N2CCCCC2)c2cc(F)ccc2n1CC(=O)O [Compound 2, 2-(5-Fluoro-2-methyl-3-(2-(piperidin-1-ylsulfonyl)benzyl)-1H-indol-1-yl)acetic Acid] | 5 | 0.04 | high intrinsic activity | activity is maintained in whole blood |
| Cc1c(Cc2ccccc2S(=O)(=O)C2CCCC2)c2cc(F)ccc2n1CC(=O)O [Compound 3, 2-(3-(2-(Cyclopentylsulfonyl)benzyl)-5-fluoro-2-methyl-1H-indol-1-yl)acetic Acid] | 7 | 0.2 | high intrinsic activity | activity is maintained in whole blood |
| Cc1c(Cc2ccc(S(=O)(=O)C3CCCCC3)cc2)c2cc(F)ccc2n1CC(=O)O [Compound 6, 2-(3-(4-(Cyclohexylsulfonyl)benzyl)-5-fluoro-2-methyl-1H-indol-1-yl)acetic Acid] | 85 | 2 | – | – |
| Cc1c(Cc2ccc(S(=O)(=O)C3CCCC3)cc2)c2cc(F)ccc2n1CC(=O)O [Compound 7, 2-(3-(4-(Cyclopentylsulfonyl)benzyl)-5-fluoro-2-methyl-1H-indol-1-yl)acetic Acid] | 44 | 5 | – | – |
| Cc1c(Cc2ccccc2S(=O)(=O)C2CCC2)c2cc(F)ccc2n1CC(=O)O [Compound 8, 2-(3-(2-(Cyclobutylsulfonyl)benzyl)-5-fluoro-2-methyl-1H-indol-1-yl)acetic Acid] | 240 | 3 | – | – |

Further lines, with some results ahead:

| IC50 [1] [nM] | Ki [2] [nM] | intrinsic activity (CRTH2 antagonist), in words [3] | Compound | activity in whole blood, in words [1] |
| --- | --- | --- | --- | --- |
| – | 55 | – | Cc1c(Cc2cccc(S(=O)(=O)N3CCCCC3)c2)c2cc(F)ccc2n1CC(=O)O [Compound 4, 2-(5-Fluoro-2-methyl-3-(3-(piperidin-1-ylsulfonyl)benzyl)-1H-indol-1-yl)acetic Acid] | – |
| 5 | – | high intrinsic activity | Cc1c(Cc2ccccc2S(=O)(=O)N2CCCC2)c2cc(F)ccc2n1CC(=O)O [Compound 5, 2-(5-Fluoro-2-methyl-3-(2-(pyrrolidin-1-ylsulfonyl)benzyl)-1H-indol-1-yl)acetic Acid] | activity is maintained in whole blood |
| – | 100 | – | Cc1c(Cc2cccc(S(=O)(=O)N3CCCC3)c2)c2cc(F)ccc2n1CC(=O)O [Compound 9, 2-(5-Fluoro-2-methyl-3-(3-(pyrrolidin-1-ylsulfonyl)benzyl)-1H-indol-1-yl)acetic Acid] | – |
| – | 1 | – | Cc1c(Cc2ccc(S(=O)(=O)N3CCCCC3)cc2)c2cc(F)ccc2n1CC(=O)O [Compound 10, 2-(5-Fluoro-2-methyl-3-(4-(piperidin-1-ylsulfonyl)benzyl)-1H-indol-1-yl)acetic Acid] | – |
